≈ marks a conversion by molar mass, not a printed value.
Assays:
[1] = Apparent permeability across basal to apical side in MDCKI-MDR1 cells; type: ADME, cell-based, Canis lupus familiaris; conditions: dog, MDCK-MDR1
Orexin receptor type 2 = biological target: T1, Orexin receptor type 2 (Homo sapiens, UniProt O43614)
T1 sequence (O43614 whole entry): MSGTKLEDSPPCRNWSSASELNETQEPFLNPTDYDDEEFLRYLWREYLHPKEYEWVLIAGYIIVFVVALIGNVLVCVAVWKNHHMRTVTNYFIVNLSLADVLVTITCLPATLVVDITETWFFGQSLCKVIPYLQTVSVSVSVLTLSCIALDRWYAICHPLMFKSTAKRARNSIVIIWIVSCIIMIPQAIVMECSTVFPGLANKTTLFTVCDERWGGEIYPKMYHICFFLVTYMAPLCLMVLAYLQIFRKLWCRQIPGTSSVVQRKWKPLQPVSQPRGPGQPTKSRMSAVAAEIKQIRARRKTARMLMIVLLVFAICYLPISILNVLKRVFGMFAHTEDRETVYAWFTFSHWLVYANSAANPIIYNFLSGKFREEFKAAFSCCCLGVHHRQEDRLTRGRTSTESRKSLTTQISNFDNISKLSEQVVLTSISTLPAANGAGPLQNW
Description: Antagonist activity at human OX2R expressed in CHO cells preincubated for 120 mins followed by orexin-A addition by FLIPR assay

[2] = Thermodynamic solubility in FaSSIF at pH 6.5; type: ADME; conditions: read-out: Therm_solubility
in vitro [3] = conditions: dog, MDCK-MDR1
Description: Efflux ratio in MDCKI-MDR1 cells

[4] = Drug concentration in cerebrospinal fluid of Wistar rat at 1 mg/kg, po measured after 1 hr by LC-tandem MS analysis; type: ADME, organism-based; conditions: read-out: Ct
in vitro [5] = conditions: rat, liver microsomes
[6] = Solubility of compound in FeSSIF; type: ADME
[7] = In vivo receptor occupancy at OX2R in Wistar rat brain at 100 mg/kg, po measured after 1 hr relative to control; type: functional
[8] = Drug absorption in rat; type: ADME; conditions: in vivo
[9] = Thermodynamic solubility in FeSSIF at pH 5.0; type: ADME; conditions: read-out: Therm_solubility
[10] = biological target: T2, Orexin/Hypocretin receptor type 1 (Homo sapiens, UniProt O43613)
T2 sequence (O43613 whole entry): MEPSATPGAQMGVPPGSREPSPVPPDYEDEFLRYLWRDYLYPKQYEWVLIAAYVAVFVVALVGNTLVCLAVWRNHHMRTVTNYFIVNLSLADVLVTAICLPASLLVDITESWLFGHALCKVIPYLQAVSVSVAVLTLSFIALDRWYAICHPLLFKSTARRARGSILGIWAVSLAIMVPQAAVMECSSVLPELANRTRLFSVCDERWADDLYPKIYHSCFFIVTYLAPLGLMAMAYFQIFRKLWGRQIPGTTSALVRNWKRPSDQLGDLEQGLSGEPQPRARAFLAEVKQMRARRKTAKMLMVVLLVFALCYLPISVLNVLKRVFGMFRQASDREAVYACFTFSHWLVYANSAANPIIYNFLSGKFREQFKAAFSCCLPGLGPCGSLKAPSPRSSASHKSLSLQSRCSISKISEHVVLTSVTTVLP
Description: Antagonist activity at human OX1R expressed in CHO cells preincubated for 120 mins followed by orexin-A addition by FLIPR assay

[11] = Unbound drug concentration in Wistar rat brain at 30 mg/kg, po measured after 1 hr by LC-tandem MS analysis; type: ADME, organism-based; conditions: in vivo
[12] = Apparent permeability across apical to basal side in MDCKI-MDR1 cells; type: ADME, cell-based, Canis lupus familiaris; conditions: dog, MDCK-MDR1
[13] = Unbound drug concentration in Wistar rat brain at 100 mg/kg, po measured after 1 hr by LC-tandem MS analysis; type: ADME, organism-based; conditions: in vivo
[14] = In vivo receptor occupancy at OX2R in Wistar rat brain at 30 mg/kg, po measured after 1 hr relative to control; type: functional
[15] = Drug absorption in dog; type: ADME, Canis lupus familiaris; conditions: in vivo
in vitro [16] = conditions: human, liver microsomes
[17] = Drug concentration in Wistar rat Cerebrospinal fluid at 100 mg/kg, po measured after 1 hr by LC-tandem MS analysis; type: ADME, organism-based; conditions: read-out: Ct
[18] = Clearance in rat; type: ADME; conditions: in vivo
[19] = Drug concentration in Wistar rat Cerebrospinal fluid at 30 mg/kg, po measured after 1 hr by LC-tandem MS analysis; type: ADME, organism-based; conditions: read-out: Ct
[20] = Ratio of unbound drug concentration in Wistar rat brain to plasma at 1 mg/kg, po measured after 1 hr by LC-tandem MS analysis; type: ADME, organism-based; conditions: read-out: K(p,uu,brain)
[21] = Unbound drug concentration in Wistar rat brain at 1 mg/kg, po measured after 1 hr by LC-tandem MS analysis; type: ADME, organism-based; conditions: in vivo
[22] = Apparent permeability in wild-type MDCK-II cells; type: ADME, cell-based, Canis lupus familiaris; conditions: dog
[23] = Unbound drug concentration in Wistar rat plasma at 1 mg/kg, po measured after 1 hr by LC-tandem MS analysis; type: ADME, organism-based; conditions: in vivo
[24] = Clearance in dog; type: ADME, Canis lupus familiaris; conditions: in vivo

Papp B→A [1]: 70.5 ×10⁻⁶ cm/s
IC50 (Orexin receptor type 2): 227 nM
solubility thermodynamic [2]: 72 µg/mL (≈ 168 µM)
efflux ratio (in vitro [3]): 3.5
concentration at 1 h [4]: 718 nM
microsomal CLint at 1 µM (in vitro [5]): > 1250 µL/min/mg
solubility [6]: 270 µg/mL (≈ 629 µM)
Drug absorption [8]: Active
solubility thermodynamic [9]: 150 µg/mL (≈ 349 µM)
IC50 [10]: 1.7 nM
Drug uptake(free) [11]: 92 nM
Papp A→B [12]: 20.4 ×10⁻⁶ cm/s
Drug uptake(free) [13]: 413 nM
Drug absorption [15]: Active
microsomal CLint at 1 µM (in vitro [16]): 156 µL/min/mg
concentration at 1 h [17]: 718 nM
clearance [18]: 31 mL/min/kg
concentration at 1 h [19]: 240 nM
Kp uu at 1 h [20]: 1.82
Drug uptake(free) [21]: 413 nM
Papp [22]: 43.9 ×10⁻⁶ cm/s
Cp(f) [23]: 227 nM
clearance [24]: 7.7 mL/min/kg
Compound: Cc1ccc(C(=O)N2CCOC[C@H]2Cc2cccc(-n3nccn3)c2)c(-n2nccn2)c1 [NIVASOREXANT]
Occ [7]: 92%
Occ [14]: 71%

Reference: ChEMBL document CHEMBL5537208 (J Med Chem, 2024)
